molecular target: T1, human LPA1 (Homo sapiens, UniProt Q92633); experiment: LPA1 calcium flux assay (HLPA1 Ca Flux); format: cell-based; details: CHO cells stably expressing human LPA1, stimulated with 10 nM LPA
T1 construct: the full-length cDNA for human LPA1 was obtained by PCR of the reverse transcription reaction; expressed in transfected cells
Description: A 1.1 kb cDNA encoding the human LPA1 receptor was cloned from human lung. Human lung RNA (Clontech Laboratories, Inc. USA) was reverse transcribed using the RETROscript kit (Ambion, Inc.) and the full-length cDNA for human LPA1 was obtained by PCR of the reverse transcription reaction. The nucleotide sequence of the cloned human LPA1 was determined by sequencing and confirmed to be identical to the published human LPA1 sequence (An et al. Biochem. Biophys. Res. Commun. 231:619 (1997). The cDNA was cloned into the pcDNA5/FRT expression plasmid and transfected in CHO cells using lipofectamine 2000 (Invitrogen Corp., USA). Clones stably expressing human LPA1 were selected using hygromycin and identified as cells that show Ca-influx in response to LPA.
Human LPA1 or LPA3 expressing CHO cells are seeded at 20,000-45,000 cells per well in a 96-well poly-D-lysine coated plate one or two days before the assay. Prior to the assay, the cells are washed once with PBS and then cultured in serum-free media overnight. On the day of the assay, a calcium indicator dye (Calcium 4, Molecular Devices) in assay buffer (HBSS with Ca^2+ and Mg^2+ and containing 20 mM Hepes and 0.3% fatty-acid free human serum albumin) is added to each well and incubation continued for 1 hour at 37° C. […] of test compounds in 2.5% DMSO are added to the cells and incubation continued at room temperature for 30 minutes. Cells are the stimulated by the addition of 10 nM LPA and intracellular Ca^2+ measured using the Flexstation 3 (Molecular Devices). IC50s are determined using Graphpad prism analysis of drug titration curves.

T1 sequence (Q92633 whole entry): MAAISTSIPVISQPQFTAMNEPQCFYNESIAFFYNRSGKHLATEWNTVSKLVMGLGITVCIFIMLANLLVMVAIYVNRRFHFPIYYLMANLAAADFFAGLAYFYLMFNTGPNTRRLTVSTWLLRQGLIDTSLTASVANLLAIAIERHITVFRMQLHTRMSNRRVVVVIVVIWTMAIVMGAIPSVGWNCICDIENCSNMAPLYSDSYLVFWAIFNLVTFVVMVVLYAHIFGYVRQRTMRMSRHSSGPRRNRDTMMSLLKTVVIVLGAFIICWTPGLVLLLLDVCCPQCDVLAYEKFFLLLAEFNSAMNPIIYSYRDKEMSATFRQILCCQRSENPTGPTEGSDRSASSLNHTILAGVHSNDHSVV

First: Cc1noc(-c2ccc(-c3ccc(C4(C(=O)O)CC4)cc3)cc2)c1CC(C)(O)CCc1ccccc1 (stereo not shown) [Compound 25, 1-{4′-[4-(2-Hydroxy-2-methyl-4-phenyl-butyl)-3-methyl-isoxazol-5-yl]-biphenyl-4-yl}-cyclopropanecarboxylic acid]
Second: Cc1noc(-c2ccc(-c3ccc(C4(C(=O)O)CC4)cc3)cc2)c1CCC(O)Cc1ccccc1 (stereo not shown) [Compound 23, 1-{4′-[4-(3-Hydroxy-4-phenyl-butyl)-3-methyl-isoxazol-5-yl]-biphenyl-4-yl}-cyclopropanecarboxylic acid]
The IC50 of the first is lower: under 300 nM for the first, 300 to 1000 nM for the second. The first is the more potent here.

`Cc1noc(-c2ccc(-c3ccc(C4(C(=O)NS(C)(=O)=O)CC4)cc3)cc2)c1CC(F)(F)CCc1ccccc1` [Compound 75, N-(1-{4′-[4-(2,2-Difluoro-4-phenyl-butyl)-3-methyl-isoxazol-5-yl]-biphenyl-4-yl}-cyclopropanecarbonyl)-methanesulfonamide] and `Cc1noc(-c2ccc(-c3ccc(C4(C(=O)NS(C)(=O)=O)CC4)cc3)cc2)c1CSCCc1ccccc1` [Compound 71, N-[1-[4′-(3-Methyl-4-phenethylsulfanylmethyl-isoxazol-5-yl)-biphenyl-4-yl]-cyclopropanecarbonyl]-methanesulfonamide] cannot be ordered by IC50: under 300 nM for the first, under 300 nM for the second.

`Cc1noc(-c2ccc(-c3ccc(C4(C(=O)O)CC4)cc3)cc2)c1NCCCc1ccccc1` [Compound 2, 1-{4′-[3-Methyl-4-(3-phenyl-propylamino)-isoxazol-5-yl]-biphenyl-4-yl}-cyclopropanecarboxylic acid] and `Cc1noc(-c2ccc(-c3ccc(C4(C(=O)O)CC4)cc3)cc2)c1NCCC(C)c1ccccc1` (stereo not shown) [Compound 1, 1-{4′-[3-Methyl-4-(3-phenyl-butylamino)-isoxazol-5-yl]-biphenyl-4-yl}-cyclopropanecarboxylic acid] cannot be ordered by IC50: under 300 nM for the first, under 300 nM for the second.

`Cc1noc(-c2ccc(-c3ccc(C4(C(=O)O)CC4)cc3)cc2)c1CNC[C@H](C)c1ccccc1` [Compound 22, 1-(4′-{3-Methyl-4-[((R)-2-phenyl-propylamino)-methyl]-isoxazol-5-yl}-biphenyl-4-yl)-cyclopropanecarboxylic acid] and `Cc1noc(-c2ccc(-c3ccc(C4(C(=O)O)CC4)cc3)cc2)c1CNCC(C)c1ccccc1` (stereo not shown) [Compound 13, 1-(4′-{3-Methyl-4-[(2-phenyl-propylamino)-methyl]-isoxazol-5-yl}-biphenyl-4-yl)-cyclopropanecarboxylic acid] cannot be ordered by IC50: under 300 nM for the first, under 300 nM for the second.

`Cc1noc(-c2ccc(-c3ccc(C4(C(=O)O)CC4)cc3)cc2)c1NC(C)CC(C)(C)c1ccccc1` (stereo not shown) [Compound 69, 1-{4′-[4-(1,3-Dimethyl-3-phenyl-butylamino)-3-methyl-isoxazol-5-yl]-biphenyl-4-yl}-cyclopropanecarboxylic acid] and `Cc1noc(-c2ccc(-c3ccc(C4(C(=O)O)CC4)cc3)cc2)c1NC(C)CCc1ccccc1Cl` (stereo not shown) [Compound 53, 1-(4′-{4-[3-(2-Chloro-phenyl)-1-methyl-propylamino]-3-methyl-isoxazol-5-yl}-biphenyl-4-yl)-cyclopropanecarboxylic acid] cannot be ordered by IC50: under 300 nM for the first, under 300 nM for the second.

`Cc1noc(-c2ccc(-c3ccc(C4(C(=O)O)CC4)cc3)cc2)c1C(O)COCCc1ccccc1` (stereo not shown) [Compound 59, 1-{4′-[4-(1-Hydroxy-2-phenethyloxy-ethyl)-3-methyl-isoxazol-5-yl]-biphenyl-4-yl}-cyclopropanecarboxylic acid] and `Cc1noc(-c2ccc(-c3ccc(C4(C(=O)O)CC4)cc3)cc2)c1COCCc1ccccc1` [Compound 8, 1-[4′-(3-Methyl-4-phenethyloxymethyl-isoxazol-5-yl)-biphenyl-4-yl]-cyclopropanecarboxylic acid] cannot be ordered by IC50: under 300 nM for the first, under 300 nM for the second.

Compared with `COc1ccc(CCC(C)Nc2c(C)noc2-c2ccc(-c3ccc(C4(C(=O)O)CC4)cc3)cc2)cc1` (stereo not shown) [Compound 50, 1-(4′-{4-[3-(4-Methoxy-phenyl)-1-methyl-propylamino]-3-methyl-isoxazol-5-yl}-biphenyl-4-yl)-cyclopropanecarboxylic acid], `Cc1noc(-c2ccc(-c3ccc(C4(C(=O)O)CC4)cc3)cc2)c1NCC(C)Cc1ccc(C(C)C)cc1` (stereo not shown) [Compound 3, 1-(4′-{4-[3-(4-Isopropyl-phenyl)-2-methyl-propylamino]-3-methyl-isoxazol-5-yl}-biphenyl-4-yl)-cyclopropanecarboxylic acid] is higher in IC50: under 300 nM for the first, 300 to 1000 nM for the second. The first is the more potent here.

`Cc1noc(-c2ccc(-c3ccc(C4(C(=O)O)CC4)cc3)cc2)c1CCOCc1ccccc1` [Compound 7, 1-{4′-[4-(2-Benzyloxy-ethyl)-3-methyl-isoxazol-5-yl]-biphenyl-4-yl}-cyclopropanecarboxylic acid] and `Cc1noc(-c2ccc(-c3ccc(C4(C(=O)O)CC4)cc3)cc2)c1CCOCc1ccccc1Cl` [Compound 15, 1-(4′-{4-[2-(2-Chloro-benzyloxy)-ethyl]-3-methyl-isoxazol-5-yl}-biphenyl-4-yl)-cyclopropanecarboxylic acid] cannot be ordered by IC50: under 300 nM for the first, under 300 nM for the second.

`Cc1noc(-c2ccc(-c3ccc(C4(C(=O)O)CC4)cc3)cc2)c1C(O)C(F)(F)CCc1ccc(C(F)(F)F)cc1` (stereo not shown) [Compound 64, 1-(4′-{4-[2,2-Difluoro-1-hydroxy-4-(4-trifluoromethyl-phenyl)-butyl]-3-methyl-isoxazol-5-yl}-biphenyl-4-yl)-cyclopropanecarboxylic acid] and `Cc1noc(-c2ccc(-c3ccc(C4(C(=O)O)CC4)cc3)cc2)c1C(O)C(F)(F)CCc1ccc(F)cc1` (stereo not shown) [Compound 62, 1-(4′-{4-[2,2-Difluoro-4-(4-fluoro-phenyl)-1-hydroxy-butyl]-3-methyl-isoxazol-5-yl}-biphenyl-4-yl)-cyclopropanecarboxylic acid] cannot be ordered by IC50: under 300 nM for the first, under 300 nM for the second.

Compared with `Cc1noc(-c2ccc(-c3ccc(C4(C(=O)O)CC4)cc3)cc2)c1CC(O)CNCc1ccccc1` (stereo not shown) [Compound 27, 1-{4′-[4-(3-Benzylamino-2-hydroxy-propyl)-3-methyl-isoxazol-5-yl]-biphenyl-4-yl}-cyclopropanecarboxylic acid], `Cc1noc(-c2ccc(-c3ccc(C4(C(=O)O)CC4)cc3)cc2)c1C(O)CNCc1ccccc1` (stereo not shown) [Compound 29, 1-{4′-[4-(2-Benzylamino-1-hydroxy-ethyl)-3-methyl-isoxazol-5-yl]-biphenyl-4-yl}-cyclopropanecarboxylic acid] is lower in IC50: 1000 to 50000 nM for the first, under 300 nM for the second. The second is the more potent here.

Compared with `Cc1noc(-c2ccc(-c3ccc(C4(C(=O)O)CC4)cc3)cc2)c1C(O)C(C)(C)CCc1ccccc1` (stereo not shown) [Compound 45, 1-{4′-[4-(1-Hydroxy-2,2-dimethyl-4-phenyl-butyl)-3-methyl-isoxazol-5-yl]-biphenyl-4-yl}-cyclopropanecarboxylic acid], `Cc1noc(-c2ccc(-c3ccc(C4(C(=O)O)CC4)cc3)cc2)c1COCC(C)(O)c1ccccc1` (stereo not shown) [Compound 19, 1-{4′-[4-(2-hydroxy-2-phenyl-propoxymethyl)-3-methyl-isoxazol-5-yl]-biphenyl-4-yl}-cyclopropanecarboxylic acid] is higher in IC50: under 300 nM for the first, 1000 to 50000 nM for the second.

`Cc1ccc(S(=O)(=O)NC(=O)C2(c3ccc(-c4ccc(-c5onc(C)c5C(O)CCCc5ccccc5)cc4)cc3)CC2)cc1` (stereo not shown) [Compound 78, N-(1-{4′-[4-(1-Hydroxy-4-phenyl-butyl)-3-methyl-isoxazol-5-yl]-biphenyl-4-yl}-cyclopropanecarbonyl)-4-methyl-benzenesulfonamide] and `Cc1cccc(CCCC(O)c2c(C)noc2-c2ccc(-c3ccc(C4(C(=O)O)CC4)cc3)cc2)c1` (stereo not shown) [Compound 37, 1-{4′-[4-(1-Hydroxy-4-m-tolyl-butyl)-3-methyl-isoxazol-5-yl]-biphenyl-4-yl}-cyclopropanecarboxylic acid] cannot be ordered by IC50: under 300 nM for the first, under 300 nM for the second.

`Cc1noc(-c2ccc(-c3ccc(C4(C(=O)O)CC4)cc3)cc2)c1C(O)CCCc1ccccc1C(F)(F)F` (stereo not shown) [Compound 40, 1-(4′-{4-[1-Hydroxy-4-(2-trifluoromethyl-phenyl)-butyl]-3-methyl-isoxazol-5-yl}-biphenyl-4-yl)-cyclopropanecarboxylic acid] and `Cc1noc(-c2ccc(-c3ccc(C4(C(=O)O)CC4)cc3)cc2)c1C(O)CSCc1cccc(C(F)(F)F)c1` (stereo not shown) [Compound 63, 1-(4′-{4-[1-Hydroxy-2-(3-trifluoromethyl-benzylsulfanyl)-ethyl]-3-methyl-isoxazol-5-yl}-biphenyl-4-yl)-cyclopropanecarboxylic acid] cannot be ordered by IC50: under 300 nM for the first, under 300 nM for the second.

Compared with `Cc1noc(-c2ccc(-c3ccc(C4(C(=O)O)CC4)cc3)cc2)c1CNCC(O)c1ccccc1` (stereo not shown) [Compound 12, 1-(4′-{4-[(2-Hydroxy-2-phenyl-ethylamino)-methyl]-3-methyl-isoxazol-5-yl}-biphenyl-4-yl)-cyclopropanecarboxylic acid], `Cc1noc(-c2ccc(-c3ccc(C4(C(=O)O)CC4)cc3)cc2)c1C(O)COCc1cccc(C(F)(F)F)c1` (stereo not shown) [Compound 58, 1-(4′-{4-[1-Hydroxy-2-(3-trifluoromethyl-benzyloxy)-ethyl]-3-methyl-isoxazol-5-yl}-biphenyl-4-yl)-cyclopropanecarboxylic acid] is lower in IC50: 1000 to 50000 nM for the first, under 300 nM for the second.

Reference: patent US8217066B2, “Compounds as lysophosphatidic acid receptor antagonists” (Amira Pharmaceuticals, Inc., priority 2009, dated 2012)
